“And” between values parts separate entries of the source, which are not always exact repeats. Identical values can stand only once. *: point of attachment. AMC = Cc1cc(=O)oc2cc(N*)ccc12
What was measured:
Test in all cases: HDAC activity with fluorogenic lysyl substrates
Format in all cases: biochemical
Settings in all cases: 50 μM substrate
HDAC1 = target: T1, HDAC1 (Homo sapiens, UniProt Q13547)
T1 construct: purchased ENZO Life Sciences BML-SE456
Experimental: (§1) The Ac-Lys(Succ.)-AMC substrate was tested for activity with recombinant preparations of human HDACs 1-11, SIRTs 1-4, 6 and 7, a complex of HDAC3 with a fragment of the activating protein NCOR1 and with HeLa nuclear extract, a rich source of active HDACs in their native multiprotein complexes.
(§2) Enzyme and extract catalog products obtained from ENZO Life Sciences included: HDAC1 (Cat. # BML-SE456), HDAC2 (Cat. # BML-SE500), HDAC3 (Cat. # BML-SE507), HDAC3/NCOR1 Complex (Cat. # BML-SE515), HDAC6 (Cat. # BML-SE508), HDAC8 (Cat. # BML-SE145), HDAC10 (Cat. # BML-SE559), HDAC11 (Cat. # BML-SE560), SIRT1 (Cat. # BML-SE239), SIRT2 (Cat. # BML-SE251), SIRT3 (Cat. # BML-SE270), SIRT5 (Cat. # BML-SE555), HeLa Nuclear Extract (Cat. # BML-KI140), Trypsin (“Fluor de Lys Developer”, 80 mg/ml bovine trypsin in 1 mM HCl, Cat. # BML-KI105 or “Fluor de Lys Developer II”, 80 mg/ml bovine trypsin in 1 mM HCl, Cat. # BML-KI176). […] Enzymes obtained from BPS Bioscience, San Diego, Calif. included: human recombinants SIRT4 (Cat. #50015), SIRT6 (Cat. #50017), SIRT7 (Cat. #50018). HeLa whole cell extract was obtained from HeLa S3 cells (American Type Culture Collection) grown in a medium of MEM/10% fetal bovine serum (FBS) as follows: 1) 9×10^6 cells were suspended by trypsinization, followed by a phosphate buffered saline (PBS) rinse and addition of MEM/10% FBS (1.5 mL) to eliminate trypsin before transfer to a 15 mL conical tube; 2) cells were sedimented by a low speed centrifugation, gently resuspended in PBS and sedimented again and supernatant removed; 3) lysis was induced by resuspension in 0.8 mL 50 mM Tris/HCl, pH 8.0 with the non-denaturing detergent NP-40 (0.5%), placement on ice and brief vortexing every 5 min. for 30 min.; 4) 100 μl of a concentrated salt solution in the same buffer was added in order to bring the final buffer composition to 50 mM Tris/C1, pH 8.0, 137 mM NaCl, 2.7 mM KCl, 1 mM MgCl2, 0.5% NP-40; 5) particulate matter was cleared by centrifugation and the cleared lysate supernatant transferred to a 1.5 mL Eppendorf tube and stored on ice until use in activity assays.
(§3) Assays were performed at 37° C., according to the manufacturer's instructions for the “SIRT1 Fluorometric Drug Discovery Kit” from Enzo Life Sciences (ELS) (Cat. # BML-AK555), with exceptions described as follows. Where indicated in figures and text, SIRT1 enzyme was replaced with another enzyme or extract and the “Fluor de Lys-SIRT1 Substrate” (Ac-Arg-His-Lys-Lys(Ac)-AMC; ELS Cat. # BML-KI-177) was replaced with another acetylated, succinylated or trifluoroacetylated substrate.

HDAC10 = target: T2, HDAC10 (Homo sapiens, UniProt Q969S8)
T2 construct: purchased ENZO Life Sciences BML-SE559
T2 sequence (Q969S8 1-669): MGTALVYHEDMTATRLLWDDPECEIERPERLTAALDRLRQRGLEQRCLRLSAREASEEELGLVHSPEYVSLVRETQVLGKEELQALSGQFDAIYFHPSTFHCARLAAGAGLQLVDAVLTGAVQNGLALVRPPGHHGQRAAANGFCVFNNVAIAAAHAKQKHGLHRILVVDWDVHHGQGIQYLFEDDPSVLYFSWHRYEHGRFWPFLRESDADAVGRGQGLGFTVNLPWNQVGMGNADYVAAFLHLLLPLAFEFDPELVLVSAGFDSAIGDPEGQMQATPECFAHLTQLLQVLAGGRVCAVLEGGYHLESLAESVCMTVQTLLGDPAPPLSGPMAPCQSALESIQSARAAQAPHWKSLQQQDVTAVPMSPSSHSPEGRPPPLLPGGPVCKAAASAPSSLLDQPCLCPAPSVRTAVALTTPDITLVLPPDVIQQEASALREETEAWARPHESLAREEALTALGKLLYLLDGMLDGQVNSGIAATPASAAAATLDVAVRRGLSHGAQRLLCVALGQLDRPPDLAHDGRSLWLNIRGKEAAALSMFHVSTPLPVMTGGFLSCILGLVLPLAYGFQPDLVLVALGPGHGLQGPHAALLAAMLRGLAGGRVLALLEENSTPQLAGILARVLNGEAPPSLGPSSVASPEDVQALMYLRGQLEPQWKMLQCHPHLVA
Experimental: as §1, §2, §3

HDAC2 = target: T3, HDAC2 (Homo sapiens, UniProt Q92769)
T3 construct: purchased ENZO Life Sciences BML-SE500
Experimental: as §1, §2, §3

HDAC3 = target: T4, HDAC3 (Homo sapiens, UniProt O15379)
T4 construct: purchased ENZO Life Sciences BML-SE507
Experimental: as §1, §2, §3

HDAC3/NCOR1 Complex = target: T5, HDAC3/NCOR1 Complex (Homo sapiens, UniProt O15379)
T5 construct: purchased ENZO Life Sciences BML-SE515
Experimental: as §1, §2, §3

HDAC5 = target: T6, HDAC5 (Homo sapiens, UniProt Q9UQL6)
T6 construct: made in house; host or cells: E. coli
Experimental: as §1, §2, §3

HDAC7 = target: T7, HDAC7 (Homo sapiens, UniProt Q8WUI4)
T7 construct: made in house; host or cells: E. coli
T7 sequence (Q8WUI4 483-903): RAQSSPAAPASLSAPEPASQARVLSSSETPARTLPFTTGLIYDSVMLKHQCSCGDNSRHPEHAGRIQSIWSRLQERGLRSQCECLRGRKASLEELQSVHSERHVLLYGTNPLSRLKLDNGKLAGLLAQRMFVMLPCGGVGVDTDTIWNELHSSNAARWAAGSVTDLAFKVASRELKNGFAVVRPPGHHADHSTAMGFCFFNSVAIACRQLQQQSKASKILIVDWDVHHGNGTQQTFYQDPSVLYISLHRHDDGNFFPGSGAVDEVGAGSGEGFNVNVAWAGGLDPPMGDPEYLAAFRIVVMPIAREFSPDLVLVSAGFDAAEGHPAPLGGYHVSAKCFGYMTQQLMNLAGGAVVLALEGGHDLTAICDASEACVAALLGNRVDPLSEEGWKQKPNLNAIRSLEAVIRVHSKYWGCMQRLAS
Experimental: as §1, §2, §3

T1 sequence (Q13547 whole entry): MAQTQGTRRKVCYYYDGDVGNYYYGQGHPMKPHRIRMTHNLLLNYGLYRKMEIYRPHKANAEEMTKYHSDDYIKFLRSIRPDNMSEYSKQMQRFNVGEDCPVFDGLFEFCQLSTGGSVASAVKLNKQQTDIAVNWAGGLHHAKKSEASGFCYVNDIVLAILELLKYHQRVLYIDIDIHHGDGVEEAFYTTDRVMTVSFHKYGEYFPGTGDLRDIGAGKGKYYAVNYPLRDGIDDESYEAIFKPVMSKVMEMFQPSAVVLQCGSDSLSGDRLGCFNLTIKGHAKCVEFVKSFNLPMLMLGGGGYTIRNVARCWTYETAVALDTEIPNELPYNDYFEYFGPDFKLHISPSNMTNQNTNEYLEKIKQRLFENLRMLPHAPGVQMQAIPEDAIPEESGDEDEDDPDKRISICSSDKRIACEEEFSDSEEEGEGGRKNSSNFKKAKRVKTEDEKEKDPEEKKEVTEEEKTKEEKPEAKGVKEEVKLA
T6 sequence (Q9UQL6 656-1122): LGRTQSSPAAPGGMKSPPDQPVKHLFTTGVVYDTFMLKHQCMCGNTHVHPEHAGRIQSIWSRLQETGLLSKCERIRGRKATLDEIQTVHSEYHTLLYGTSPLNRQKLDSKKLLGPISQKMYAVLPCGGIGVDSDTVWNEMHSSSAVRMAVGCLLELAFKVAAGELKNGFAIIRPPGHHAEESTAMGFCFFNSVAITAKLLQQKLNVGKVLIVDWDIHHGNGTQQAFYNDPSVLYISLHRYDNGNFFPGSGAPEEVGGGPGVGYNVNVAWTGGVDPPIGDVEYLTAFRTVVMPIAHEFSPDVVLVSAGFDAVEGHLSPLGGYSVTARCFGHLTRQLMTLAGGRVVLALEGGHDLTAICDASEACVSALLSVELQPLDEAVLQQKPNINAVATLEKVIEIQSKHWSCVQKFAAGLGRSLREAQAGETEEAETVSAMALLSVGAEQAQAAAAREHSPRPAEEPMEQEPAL
T5 sequence (O15379 whole entry): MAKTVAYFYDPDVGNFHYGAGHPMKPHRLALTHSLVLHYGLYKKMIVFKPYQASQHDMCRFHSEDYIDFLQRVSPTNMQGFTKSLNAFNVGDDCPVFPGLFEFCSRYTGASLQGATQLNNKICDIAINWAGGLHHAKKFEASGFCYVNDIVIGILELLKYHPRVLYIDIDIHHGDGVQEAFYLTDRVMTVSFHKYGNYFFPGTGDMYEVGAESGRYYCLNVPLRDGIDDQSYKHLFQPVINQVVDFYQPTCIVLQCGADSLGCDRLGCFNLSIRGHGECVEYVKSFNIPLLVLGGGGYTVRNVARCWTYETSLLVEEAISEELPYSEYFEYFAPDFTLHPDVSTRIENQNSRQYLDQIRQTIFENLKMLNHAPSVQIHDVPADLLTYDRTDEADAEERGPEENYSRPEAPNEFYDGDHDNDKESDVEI
T5 sequence (O75376 395-489 partner limits assumed): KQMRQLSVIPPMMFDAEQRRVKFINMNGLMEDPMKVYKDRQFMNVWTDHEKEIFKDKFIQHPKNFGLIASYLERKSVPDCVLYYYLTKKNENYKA
T4 sequence (O15379 whole entry): as the sequence (O15379 whole entry) above
T3 sequence (Q92769 whole entry): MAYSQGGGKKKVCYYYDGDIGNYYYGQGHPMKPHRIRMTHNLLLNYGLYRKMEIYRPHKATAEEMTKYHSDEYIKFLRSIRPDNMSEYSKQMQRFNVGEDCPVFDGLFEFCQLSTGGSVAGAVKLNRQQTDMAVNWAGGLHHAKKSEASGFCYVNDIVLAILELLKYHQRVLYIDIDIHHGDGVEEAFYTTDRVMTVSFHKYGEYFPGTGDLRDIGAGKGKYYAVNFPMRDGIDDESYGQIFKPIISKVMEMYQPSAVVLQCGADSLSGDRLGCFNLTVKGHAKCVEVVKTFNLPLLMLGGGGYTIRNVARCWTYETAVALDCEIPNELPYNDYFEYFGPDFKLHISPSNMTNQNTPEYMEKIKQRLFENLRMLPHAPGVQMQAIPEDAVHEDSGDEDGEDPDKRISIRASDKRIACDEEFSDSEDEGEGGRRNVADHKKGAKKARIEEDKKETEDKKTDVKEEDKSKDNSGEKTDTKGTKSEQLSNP

| Compound | Activity (HDAC1) [pmol/min/µg] | Activity (HDAC10) [pmol/min/µg] | Activity (HDAC2) [pmol/min/µg] | Activity (HDAC3; listed as Ac-Lys(Acetyl)-AMC) | Activity (HDAC3/NCOR1 Complex) [pmol/min/µg] | Activity (pmol/min/μg) (HDAC5) | Activity (pmol/min/μg) (HDAC7) | Activity (pmol/min/μg) (HDAC1) | Activity (pmol/min/μg) (HDAC10) | Activity (pmol/min/μg) (HDAC3) | Activity (HDAC3) [pmol/min/µg] | Activity (pmol/min/μg) (HDAC3/NCOR1 Complex) |
| --- | --- | --- | --- | --- | --- | --- | --- | --- | --- | --- | --- | --- |
| CC(=O)N[C@@H](CCCCNC(=O)CCC(=O)O)C(=O)Nc1ccc2c(C)cc(=O)oc2c1 [Compound 1, N—(N^α-acetyl-L-Lysine(N^ε-succinyl))-AMC] | – | – | 0.28 | – | 0.40 | Undetectable | Undetectable | Undetectable | Undetectable | Undetectable | – | – |
| CCCCCCCCCCCCCC(=O)NCCCC[C@H](NC(C)=O)C(=O)Nc1ccc2c(C)cc(=O)oc2c1 [Compound 4, N—(N^α-acetyl-L-Lysine(N^ε-myristoyl))-AMC] | 1.651 | – | 83.05 | – | 79.023 | Undetectable | Undetectable | – | – | – | 0.963 | – |
| Ac-Arg-His-Lys-Lys(ε-acetyl)-AMC (Ac-RHKK(Ac)-{AMC}; SMILES CC(=O)NCCCC[C@H](NC(=O)[C@H](CCCCN)NC(=O)[C@H](Cc1c[nH]cn1)NC(=O)[C@H](CCCNC(=N)N)NC(C)=O)C(=O)Nc1ccc2c(C)cc(=O)oc2c1) [Ac-RHKK(Ac)-AMC, p53 peptide fluorogenic deacetylase substrate, Cat. # BML-KI177, reference compound] | – | – | – | – | – | – | – | Ac-RHKK(Ac)-AMC/21 pmol/min/μg | Ac-RHKK(Ac)-AMC/2.72 pmol/min/μg | – | – | Ac-RHKK(Ac)-AMC/687 pmol/min/μg |

The remaining lines, values ahead:

| Activity (HDAC1) [pmol/min/µg] | Activity (HDAC10) [pmol/min/µg] | Activity (HDAC2) [pmol/min/µg] | Activity (HDAC3; listed as Ac-Lys(Acetyl)-AMC) | Activity (HDAC3/NCOR1 Complex) [pmol/min/µg] | Activity (pmol/min/μg) (HDAC5) | Activity (pmol/min/μg) (HDAC7) | Activity (pmol/min/μg) (HDAC1) | Activity (pmol/min/μg) (HDAC10) | Activity (pmol/min/μg) (HDAC3) | Activity (HDAC3) [pmol/min/µg] | Activity (pmol/min/μg) (HDAC3/NCOR1 Complex) | Compound |
| --- | --- | --- | --- | --- | --- | --- | --- | --- | --- | --- | --- | --- |
| 14.8 | 1.21 | 554 | 3.8 pmol/min/µg and 3.80 pmol/min/µg | 668 | Undetectable | Undetectable | – | – | – | – | – | CC(=O)NCCCCC(NC(C)=O)C(=O)Nc1ccc2c(C)cc(=O)oc2c1 (centres unmarked) [Ac-Lys(Ac.)-AMC, Ac-Lys(ε-acetyl)-AMC, reference compound] |
| 0.798 | – | 31.330 | – | 53.750 | Undetectable | Undetectable | – | – | – | 0.431 | – | COC(=O)CCC(=O)NCCCC[C@H](NC(C)=O)C(=O)Nc1ccc2c(C)cc(=O)oc2c1 [Compound 5, N—(N^α-acetyl-L-Lysine(N^ε-methyl succinyl))-AMC] |

Reference: patent US10920265B2, “Compounds and methods for detection of enzymes that remove methyl succinyl groups from epsilon-amino lysine moieties” (Enzo Life Sciences, Inc., priority 2011, dated 2021)
